In publication PMC10945555, “Improving Activity of New Arylurea Agents against Multidrug-Resistant and Biofilm-Producing Staphylococcus epidermidis” (ACS Medicinal Chemistry Letters, 2024):
Converted amounts (≈) assume the structure as drawn. Like-named read-outs stand apart in the source and are kept apart here.

Experiments:
Type in all cases: cell-based
[1] = test system: clinical MDR Staphylococcus epidermidis isolates; experiment: MIC, broth microdilution, 81 clinical MDR strains; details: Staphylococcus epidermidis
In short: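 MICs were determined by twofold broth microdilution in cation-adjusted Mueller-Hinton II broth per EUCAST, over 50–0.1 µg/mL, in duplicate. Compounds were tested as free bases dissolved in DMSO; MIC50 and MIC90 were derived across the 81 clinical MDR S. epidermidis strains.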

[2] = test system: Staphylococcus aureus ATCC BAA-976; experiment: MIC, broth microdilution, MDR/BPSA reference strain; details: ATCCBAA976; Staphylococcus aureus ATCC BAA-976; read-out: MIC MDR/BPSA
In short: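 Compounds tested as free bases dissolved in DMSO (1 mg/mL stock); determinations done twice; linezolid as positive control.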

[3] = test system: Staphylococcus epidermidis ATCC 12228; experiment: MIC, broth microdilution, MSSE reference strain; details: ATCC12228, Staphylococcus epidermidis ATCC 12228, read-out: MIC MSSE
Text: These strains included susceptible, multidrug-resistant, and biofilm-producing strains of S. epidermidis and S. aureus (MSSE, MDR/BPSE, and MDR/BPSA, respectively). The cornerstone antibiotic linezolid served as a positive control (Table 1). The impact of structural modifications at the aryloxy fragment and the aromatic moiety bound to the propyl linker on the inhibitory activity was initially investigated. […] Further optimization focused on evaluating the impact of the type of substituent and its position on the arylsulfonamide fragment’s activity.
2 Biological assay protocols
Microbiological tests were carried out under aseptic conditions in a laminar chamber of the 2nd […]
(BioTectum 1.2, Alchem Poland). The assessment of antimicrobial activity was carried out for final compounds in the form of free bases, soluble in DMSO (Merck, Germany), at the initial […]
concentration of 1 mg/mL. […]
were provided by Cayman Chemical, USA.
The activity of all newly synthesized compounds was tested in vitro on a panel of selected reference strains from the American Type Culture Collection (ATCC) of Gram-positive […]
2.2 Effect of evaluated compounds on planktonic cells
The susceptibility of three reference bacterial strains (Staphylococcus epidermidis ATCC […]
Table S1) and 81 clinical MDR S. epidermidis (Table S2) to the tested compounds was assessed by determining the MIC value (Minimal Inhibitory Concentration) by microdilution in a liquid medium in 96-well flat-bottom cell culture plates (Nest Biotechnology Scientific, USA). The antibacterial properties of the compo unds were tested in the concentration range from 50 µg/mL to 0.1 µg/mL by making a series of double dilutions of the compound in liquid Mueller -Hinton II Broth Cation Adjusted (MHB II, BBL TM, USA) according to the European Committee on […]
Antimicrobial Susceptibility Testing guidelines (EUCAST).2,3 The determinations were performed twice. The MIC50 and MIC90 values were determined for each of the tested

O=S(=O)(NC1CCN(CCC(Oc2ccc(C(F)(F)F)cc2)c2cccs2)CC1)c1cccc(C(F)(F)F)c1 (centres unmarked) [Compound 21]
MIC ([1]; clinical strain 1 (Table S2), read-out: MIC): 0.8 µg/mL (≈ 1.35 µM)
MIC ([1]; clinical strain 2 (Table S2), read-out: MIC): 6.25 µg/mL (≈ 10.5 µM)
MIC ([1]; clinical strain 3 (Table S2), read-out: MIC): 6.25 µg/mL (≈ 10.5 µM)
MIC ([1]; clinical strain 4 (Table S2), read-out: MIC): 50 µg/mL (≈ 84.4 µM)
MIC ([1]; clinical strain 5 (Table S2), read-out: MIC): 1.6 µg/mL (≈ 2.7 µM)
MIC ([1]; clinical strain 6 (Table S2), read-out: MIC): 50 µg/mL (≈ 84.4 µM)
MIC ([1]; clinical strain 7 (Table S2), read-out: MIC): 50 µg/mL (≈ 84.4 µM)
MIC ([1]; clinical strain 8 (Table S2), read-out: MIC): 6.25 µg/mL (≈ 10.5 µM)
MIC ([1]; clinical strain 9 (Table S2), read-out: MIC): 3.12 µg/mL (≈ 5.27 µM)
MIC ([1]; clinical strain 10 (Table S2), read-out: MIC): 50 µg/mL (≈ 84.4 µM)
MIC ([1]; clinical strain 11 (Table S2), read-out: MIC): 6.25 µg/mL (≈ 10.5 µM)
MIC ([1]; clinical strain 12 (Table S2), read-out: MIC): 50 µg/mL (≈ 84.4 µM)
MIC ([1]; clinical strain 13 (Table S2), read-out: MIC): 50 µg/mL (≈ 84.4 µM)
MIC ([1]; clinical strain 14 (Table S2), read-out: MIC): 50 µg/mL (≈ 84.4 µM)
MIC ([1]; clinical strain 15 (Table S2), read-out: MIC): 50 µg/mL (≈ 84.4 µM)
MIC ([1]; clinical strain 16 (Table S2), read-out: MIC): 50 µg/mL (≈ 84.4 µM)
MIC ([1]; clinical strain 17 (Table S2), read-out: MIC): 50 µg/mL (≈ 84.4 µM)
MIC ([1]; clinical strain 18 (Table S2), read-out: MIC): 50 µg/mL (≈ 84.4 µM)
MIC ([1]; clinical strain 19 (Table S2), read-out: MIC): 50 µg/mL (≈ 84.4 µM)
MIC ([1]; clinical strain 20 (Table S2), read-out: MIC): 3.12 µg/mL (≈ 5.27 µM)
MIC ([1]; clinical strain 21 (Table S2), read-out: MIC): 3.12 µg/mL (≈ 5.27 µM)
MIC ([1]; clinical strain 22 (Table S2), read-out: MIC): 6.25 µg/mL (≈ 10.5 µM)
MIC ([1]; clinical strain 23 (Table S2), read-out: MIC): 0.8 µg/mL (≈ 1.35 µM)
MIC ([1]; clinical strain 24 (Table S2), read-out: MIC): 3.12 µg/mL (≈ 5.27 µM)
MIC ([1]; clinical strain 25 (Table S2), read-out: MIC): 50 µg/mL (≈ 84.4 µM)
MIC ([1]; clinical strain 26 (Table S2), read-out: MIC): 50 µg/mL (≈ 84.4 µM)
MIC ([1]; clinical strain 27 (Table S2), read-out: MIC): 0.8 µg/mL (≈ 1.35 µM)
MIC ([1]; clinical strain 28 (Table S2), read-out: MIC): 50 µg/mL (≈ 84.4 µM)
MIC ([1]; clinical strain 29 (Table S2), read-out: MIC): 50 µg/mL (≈ 84.4 µM)
MIC ([1]; clinical strain 30 (Table S2), read-out: MIC): 50 µg/mL (≈ 84.4 µM)
MIC ([1]; clinical strain 31 (Table S2), read-out: MIC): 50 µg/mL (≈ 84.4 µM)
MIC ([1]; clinical strain 32 (Table S2), read-out: MIC): 50 µg/mL (≈ 84.4 µM)
MIC ([1]; clinical strain 33 (Table S2), read-out: MIC): 50 µg/mL (≈ 84.4 µM)
MIC ([1]; clinical strain 34 (Table S2), read-out: MIC): 50 µg/mL (≈ 84.4 µM)
MIC ([1]; clinical strain 35 (Table S2), read-out: MIC): 25 µg/mL (≈ 42.2 µM)
MIC ([1]; clinical strain 36 (Table S2), read-out: MIC): 50 µg/mL (≈ 84.4 µM)
MIC ([1]; clinical strain 37 (Table S2), read-out: MIC): 50 µg/mL (≈ 84.4 µM)
MIC ([1]; clinical strain 38 (Table S2), read-out: MIC): 50 µg/mL (≈ 84.4 µM)
MIC ([1]; clinical strain 39 (Table S2), read-out: MIC): 50 µg/mL (≈ 84.4 µM)
MIC ([1]; clinical strain 40 (Table S2), read-out: MIC): 50 µg/mL (≈ 84.4 µM)
MIC ([1]; clinical strain 41 (Table S2), read-out: MIC): 50 µg/mL (≈ 84.4 µM)
MIC ([1]; clinical strain 42 (Table S2), read-out: MIC): 6.25 µg/mL (≈ 10.5 µM)
MIC ([1]; clinical strain 43 (Table S2), read-out: MIC): 6.25 µg/mL (≈ 10.5 µM)
MIC ([1]; clinical strain 44 (Table S2), read-out: MIC): 50 µg/mL (≈ 84.4 µM)
MIC ([1]; clinical strain 45 (Table S2), read-out: MIC): 50 µg/mL (≈ 84.4 µM)
MIC ([1]; clinical strain 46 (Table S2), read-out: MIC): 50 µg/mL (≈ 84.4 µM)
MIC ([1]; clinical strain 47 (Table S2), read-out: MIC): 50 µg/mL (≈ 84.4 µM)
MIC ([1]; clinical strain 48 (Table S2), read-out: MIC): 50 µg/mL (≈ 84.4 µM)
MIC ([1]; clinical strain 49 (Table S2), read-out: MIC): 50 µg/mL (≈ 84.4 µM)
MIC ([1]; clinical strain 50 (Table S2), read-out: MIC): 50 µg/mL (≈ 84.4 µM)
MIC ([1]; clinical strain 51 (Table S2), read-out: MIC): 50 µg/mL (≈ 84.4 µM)
MIC ([1]; clinical strain 52 (Table S2), read-out: MIC): 50 µg/mL (≈ 84.4 µM)
MIC ([1]; clinical strain 53 (Table S2), read-out: MIC): 50 µg/mL (≈ 84.4 µM)
MIC ([1]; clinical strain 54 (Table S2), read-out: MIC): 50 µg/mL (≈ 84.4 µM)
MIC ([1]; clinical strain 55 (Table S2), read-out: MIC): 50 µg/mL (≈ 84.4 µM)
MIC ([1]; clinical strain 56 (Table S2), read-out: MIC): 50 µg/mL (≈ 84.4 µM)
MIC ([1]; clinical strain 57 (Table S2), read-out: MIC): 50 µg/mL (≈ 84.4 µM)
MIC ([1]; clinical strain 58 (Table S2), read-out: MIC): 50 µg/mL (≈ 84.4 µM)
MIC ([1]; clinical strain 59 (Table S2), read-out: MIC): 50 µg/mL (≈ 84.4 µM)
MIC ([1]; clinical strain 60 (Table S2), read-out: MIC): 50 µg/mL (≈ 84.4 µM)
MIC ([1]; clinical strain 61 (Table S2), read-out: MIC): 50 µg/mL (≈ 84.4 µM)
MIC ([1]; clinical strain 62 (Table S2), read-out: MIC): 50 µg/mL (≈ 84.4 µM)
MIC ([1]; clinical strain 63 (Table S2), read-out: MIC): 50 µg/mL (≈ 84.4 µM)
MIC ([1]; clinical strain 64 (Table S2), read-out: MIC): 50 µg/mL (≈ 84.4 µM)
MIC ([1]; clinical strain 65 (Table S2), read-out: MIC): 3.12 µg/mL (≈ 5.27 µM)
MIC ([1]; clinical strain 66 (Table S2), read-out: MIC): 3.12 µg/mL (≈ 5.27 µM)
MIC ([1]; clinical strain 67 (Table S2), read-out: MIC): 50 µg/mL (≈ 84.4 µM)
MIC ([1]; clinical strain 68 (Table S2), read-out: MIC): 50 µg/mL (≈ 84.4 µM)
MIC ([1]; clinical strain 69 (Table S2), read-out: MIC): 50 µg/mL (≈ 84.4 µM)
MIC ([1]; clinical strain 70 (Table S2), read-out: MIC): 50 µg/mL (≈ 84.4 µM)
MIC ([1]; clinical strain 71 (Table S2), read-out: MIC): 50 µg/mL (≈ 84.4 µM)
MIC ([1]; clinical strain 72 (Table S2), read-out: MIC): 50 µg/mL (≈ 84.4 µM)
MIC ([1]; clinical strain 73 (Table S2), read-out: MIC): 50 µg/mL (≈ 84.4 µM)
MIC ([1]; clinical strain 74 (Table S2), read-out: MIC): 50 µg/mL (≈ 84.4 µM)
MIC ([1]; clinical strain 75 (Table S2), read-out: MIC): 50 µg/mL (≈ 84.4 µM)
MIC ([1]; clinical strain 76 (Table S2), read-out: MIC): 50 µg/mL (≈ 84.4 µM)
MIC ([1]; clinical strain 77 (Table S2), read-out: MIC): 1.6 µg/mL (≈ 2.7 µM)
MIC ([1]; clinical strain 78 (Table S2), read-out: MIC): 50 µg/mL (≈ 84.4 µM)
MIC ([1]; clinical strain 79 (Table S2), read-out: MIC): 50 µg/mL (≈ 84.4 µM)
MIC ([1]; clinical strain 80 (Table S2), read-out: MIC): 50 µg/mL (≈ 84.4 µM)
MIC ([1]; clinical strain 81 (Table S2), read-out: MIC): 50 µg/mL (≈ 84.4 µM)
MIC ([1]; mean of MIC values against clinical MDR-SE isolates, read-out: mean MIC): 39.4 µg/mL (≈ 66.5 µM)
MIC50 ([1]; 81 clinical strains, concentration inhibiting growth of 50% clinical isolates): 50 µg/mL (≈ 84.4 µM)
MIC90 ([1]; 81 clinical strains, concentration inhibiting growth of 90% of clinical isolates): 50 µg/mL (≈ 84.4 µM)
MIC [2]: 50 µg/mL (≈ 84.4 µM)
MIC [3]: ≤ 6.25 µg/mL
